Data published in patent publication US20090124598A1, “PHARMACEUTICAL USE OF SUBSTITUTED AMIDES” (priority 2005, published 2009).

Each molecule was assayed against T1, h-11βHSD1 (Homo sapiens, UniProt P28845) (assay: 11βHSD1 enzyme assay (SPA)). Conditions: extract of yeast transformed with h-11βHSD1; 120 nM 3H-cortisone, 60 min at 30° C., pH=7.4; read-out: Inhibition of 11βHSD1, h-11βHSD1 IC50 values.
T1 construct: made in house
Assay type: biochemical
Protocol: 3H-cortisone and anti-rabbit Ig coated scintillation proximity assay (SPA) beads were purchased from Amersham Pharmacia Biotech, P-NADPH was from Sigma and rabbit anticortisol antibodies were from Fitzgerald. An extract of yeast transformed with h-11βHSD1 (Hult et al., FEBS Lett., 441, 25 (1998)) was used as the source of enzyme. The test compounds were dissolved in DMSO (10 mM). All dilutions were performed in a buffer containing 50 mM TRIS-HCl (Sigma Chemical Co), 4 mM EDTA (Sigma Chemical Co), 0.1% BSA (Sigma Chemical Co), 0.01% Tween-20 (Sigma Chemical Co) and 0.005% bacitracin (Novo Nordisk A/S), pH=7.4. Optiplate 96 wells plates were supplied by Packard. The amount of 3H-cortisol bound to the SPA beads was measured on TopCount NXT, Packard.
h-11βHSD1, 120 nM 3H-cortisone, 4 mM β3-NADPH, antibody (1:200), serial dilutions of test compound and SPA particles (2 mg/well) were added to the wells. The reaction was initiated by mixing the different components and was allowed to proceed under shaking for 60 min at 30° C. The reaction was stopped be the addition of 10 fold excess of a stopping buffer containing 500 μM carbenoxolone and 1 μM cortisone. Data was analysed using GraphPad Prism software.

T1 sequence (P28845 whole entry): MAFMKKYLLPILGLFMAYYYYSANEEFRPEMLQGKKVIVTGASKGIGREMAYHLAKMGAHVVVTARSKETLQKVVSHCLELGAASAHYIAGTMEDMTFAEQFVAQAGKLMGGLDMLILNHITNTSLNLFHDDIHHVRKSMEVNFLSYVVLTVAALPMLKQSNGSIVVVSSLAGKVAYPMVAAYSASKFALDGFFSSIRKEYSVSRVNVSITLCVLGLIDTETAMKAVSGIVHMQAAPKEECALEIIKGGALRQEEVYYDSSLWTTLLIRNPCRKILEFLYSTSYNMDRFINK

Row | IC50 | Compound
1 | 19 nM | CN(Cc1ccc(C(=O)N2CC3(C)CC2CC(C)(C)C3)cc1)C(=O)c1ccc(S(C)(=O)=O)cc1 (stereo not drawn) [Example 1-28, 4-Methanesulfonyl-N-methyl-N-[4-(1,3,3-trimethyl-6-aza-bicyclo[3.2.1]octane-6-carbonyl)-benzyl]-benzamide]
2 | 10 nM | CC(C)N(Cc1ccc(C(=O)N2CC3(C)CC2CC(C)(C)C3)cc1)S(=O)(=O)C(F)(F)F (stereo not drawn) [Example 2-5, Trifluoro-N-isopropyl-N-[4-(1,3,3-trimethyl-6-aza-bicyclo[3.2.1]octane-6-carbonyl)-benzyl]-methanesulfonamide]
3 | 500 nM | COC(=O)CN(C)C(=O)N(C)Cc1ccc(C(=O)N2CC3(C)CC2CC(C)(C)C3)cc1 (stereo not drawn) [Example 3-8, {1,3-Dimethyl-3-[4-(1,3,3-trimethyl-6-aza-bicyclo[3.2.1]octane-6-carbonyl)-benzyl]-ureido}-acetic Acid Methyl Ester]
